For one assay, the target named is human GPR40 (Homo sapiens, UniProt O14842). The assay can be described thus: Calcium mobilization assay, agonistic activity on GPR40. The class given is cell-based. Particulars: cells expressing human GPR40 (hGPR40-1321N1). As to the method:
Cell Culture and Transfection. 1321N1 cells stably transfected with the human GPR40 were kindly provided by Euroscreen (Gosselies, Belgium). hGPR40-1321N1 cells were grown in Dulbecco's modified Eagle's medium supplemented with 10% (v/v) heat-inactivated fetal calf serum, 1% sodium pyruvate, 100 U/ml penicillin, 100 μg/ml streptomycin, and 400 μg/ml G418. 1321N1, HEK293 cells were grown in Dulbecco's modified Eagle's medium supplemented with 10% (v/v) heat-inactivated fetal calf serum, 1% sodium pyruvate, 100 U/ml penicillin, and 100 μg/ml streptomycin. All cells were kept at 37° C. in a 5% CO2 atmosphere. […]
Calcium Mobilization Assays. Calcium measurements were performed using a NOVOstar® microplate reader with a built-in pipetor (BMG LabTech, Offenburg, Germany). Cells were seeded in 96-well tissue-culture plates at a density of 30,000 cells per well. […] For testing of agonists, 20 μl of a ten-fold concentrated test compound solution was injected sequentially into separate wells and fluorescence was measured at 520 nm (bandwidth 25 nm) for 50 intervals of 0.4 seconds each. […] Concentration-inhibition curves in the presence of the test compounds were obtained by preincubating the cells with the compounds for 30 min at 37° C. prior to injection of agonist.
human GPR40, sequence (O14842 whole entry): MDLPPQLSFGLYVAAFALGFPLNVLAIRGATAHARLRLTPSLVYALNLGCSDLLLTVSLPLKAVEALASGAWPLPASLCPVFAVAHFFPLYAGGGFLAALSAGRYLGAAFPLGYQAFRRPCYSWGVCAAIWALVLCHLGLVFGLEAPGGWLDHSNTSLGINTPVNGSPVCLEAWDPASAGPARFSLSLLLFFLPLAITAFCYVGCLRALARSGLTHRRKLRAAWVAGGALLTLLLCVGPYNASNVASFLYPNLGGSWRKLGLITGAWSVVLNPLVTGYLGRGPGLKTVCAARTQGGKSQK
Regarding `O=C(O)CCc1ccc(C#Cc2ccccc2)cc1` [Example A5, 3-(4-(Phenylethynyl)phenyl)propanoic acid], the “GPR40 agonistic activity (pEC50)” value worked out at 7.02.
Still for that read-out and setting: as for `Cc1cccc(C#Cc2ccc(CCC(=O)O)cc2)c1` [Example A7, 3-(4-(m-Tolylethynyl)phenyl)propanoic acid], the figure is 7.36.
Still for that read-out and setting: with `O=C(O)CCc1ccc(C#Cc2cccc(CO)c2)cc1` [Example A8, 3-(4-((3-(Hydroxymethyl)phenyl)ethynyl)phenyl)propanoic acid] the figure was 6.05; with `Cc1ccccc1C#Cc1ccc(CCC(=O)O)cc1` [Example A9, 3-(4-(o-Tolylethynyl)phenyl)propanoic acid], 7.49.
Still for that read-out and setting: with `N#Cc1cccc(C#Cc2ccc(CCC(=O)O)cc2)c1` [Example A11, 3-(4-((3-Cyanophenyl)ethynyl)phenyl)propanoic acid] the figure was 7.04.
For `O=Cc1cccc(C#Cc2ccc(CCC(=O)O)cc2)c1` [Example A13, 3-(4-((3-Formylphenyl)ethynyl)phenyl)propanoic acid], the “GPR40 agonistic activity (pEC50)” value is 6.45.
Still for that read-out and setting: with `O=C(O)CCc1ccc(C#Cc2cccc(C(F)(F)F)c2)cc1` [Example A14, 3-(4-((3-(Trifluoromethyl)phenyl)ethynyl)phenyl)propanoic acid] the figure was 7.05.
Still for that read-out and setting: with `Cc1cc(C)cc(C#Cc2ccc(CCC(=O)O)cc2)c1` [Example A15, 3-(4-((3,5-Dimethylphenyl)ethynyl)phenyl)propanoic acid] the figure was 7.13; with `Cc1cccc(C#Cc2ccc(CCC(=O)O)cc2)c1C` [Example A16, 3-(4-((2,3-Dimethylphenyl)ethynyl)phenyl)propanoic acid], 7.06; with `Nc1cccc(C#Cc2ccc(CCC(=O)O)cc2)c1` [Example A17, 3-(4-((3-Aminophenyl)ethynyl)phenyl)propanoic acid], 5.96.
On the same count and under the same terms, as for `C#Cc1cccc(C#Cc2ccc(CCC(=O)O)cc2)c1` [Example A18, 3-(4-((3-Ethynylphenyl)ethynyl)phenyl)propanoic acid], the figure is 6.81; as for `CCc1ccccc1C#Cc1ccc(CCC(=O)O)cc1` [Example A30, 3-(4-((2-Ethylphenyl)ethynyl)phenyl)propanoic acid], 7.05; as for `Cc1cc(C#Cc2ccc(CCC(=O)O)cc2)ccn1` [Example A32, 3-(4-((2-Methylpyridin-4-yl)ethynyl)phenyl)propanoic acid], 5.95.
For the compound `O=C(O)CCc1ccc(C#Cc2ncccc2[N+](=O)[O-])cc1` [Example A34, 3-(4-((3-Nitropyridin-2-yl)ethynyl)phenyl)propanoic acid], the “GPR40 agonistic activity (pEC50)” value is 4.96.
Still for that read-out and setting: with `O=C(O)C1CC1c1ccc(C#Cc2cc(Cl)nc(Cl)c2)cc1` (stereo not drawn) [Example A35, 2-(4-((2,6-Dichloropyridin-4-yl)ethynyl)phenyl)cyclopropanecarboxylic acid] the figure was 7.37; with `O=C(O)CCc1ccc(C#Cc2ccccc2-c2ccccc2)cc1` [Example A40, 3-(4-(Biphenyl-2-ylethynyl)phenyl)propanoic acid], 6.00; with `Cc1cccc(C)c1C#Cc1ccc(CCC(=O)O)cc1` [Example A50, 3-(4-((2,6-Dimethylphenyl)etnynyl)phenyl)propanoic acid], 6.38.
The same measure, in the same setting: as for `COc1ccccc1C#Cc1ccc(CCC(=O)O)cc1` [Example A51, 3-(4-((2-Methoxyphenyl)ethynyl)phenyl) acid], the figure is 6.66; as for `O=C(O)CCc1ccc(C#Cc2cccc(O)c2)cc1` [Example A52, 3-(4-((3-Hydroxyphenyl)ethynyl)phenyl)propanoic acid], 6.35; as for `CC(=O)c1ccccc1C#Cc1ccc(CCC(=O)O)cc1` [Example A53, 3-(4-((2-Acetylphenyl)ethynyl)phenyl)propanoic acid], 6.73.
Turning to `O=C(O)CCc1ccc(C#Cc2ccccc2O)cc1` [Example A58, 3-(4-((2-Hydroxyphenyl)ethynyl)phenyl)propanoic acid], the “GPR40 agonistic activity (pEC50)” value is reported as 4.79.
Same read-out and setting: with `O=C(O)CCc1ccc(C#Cc2ccccc2CO)cc1` [Example A59] the figure was 6.24.

The same assay, now with this note: cells expressing human GPR40 (hGPR40-1321N1), read-out: GPR40 agonistic activity (pEC50) (converted).
In the case of `O=C(O)[C@@H]1C[C@H]1c1ccc(C#Cc2ccccc2)cc1` (relative stereo) [Example A29, trans-2-(4-(Phenylethynyl)phenyl)cyclopropanecarboxylic acid], the EC50 is 145 nM.
Turning to `O=C(O)COc1ccc(C#Cc2ccccc2)cc1` [Example A1, 2-(4-(Phenylethynyl)phenoxy)acetic acid], the EC50 was 1320 nM.
On the same count and under the same terms, with `Cc1ccccc1C#Cc1ccc(OCC(=O)O)cc1` [Example A2, 2-(4-(o-Tolylethynyl)phenoxy)acetic acid] the figure was 3630 nM; with `Cc1ccc(C#Cc2ccc(OCC(=O)O)cc2)cc1` [Example A3, 2-(4-(p-Tolylethynyl)phenoxy)acetic acid], 29500 nM.
Regarding `Cc1cccc(C#Cc2ccc(OCC(=O)O)cc2)c1` [Example A4, 2-(4-(m-Tolylethynyl)phenoxy)acetic acid], the EC50 is 562 nM.
The same measure, in the same setting: with `O=C(O)CCc1ccc(C#Cc2cccc3ccccc23)cc1` [Example A6, 3-(4-(1-Naphthylethynyl)phenyl)propanoic acid] the figure was 85.1 nM; with `O=C(O)CCc1ccc(C#Cc2cccc([N+](=O)[O-])c2)cc1` [Example A12, 3-(4-((3-Nitrophenyl)ethynyl)phenyl)propanoic acid], 57.5 nM.
Turning to `O=C(O)CCc1ccc(C#Cc2cccc(-c3cn(Cc4ccccc4)nn3)c2)cc1` [Example A19, 3-(4-((3-(1-Benzyl-1H-1,2,3-triazol-4-yl)phenyl)ethynyl)phenyl)propanoic acid], the EC50 is 1910 nM.
Still for that read-out and setting: with `O=C(O)CCc1ccc(C#Cc2ccccn2)cc1` [Example A20, 3-(4-(Pyridin-2-ylethynyl)phenyl)propanoic acid] the figure was 8130 nM.
Still for that read-out and setting: as for `O=C(O)CCc1ccc(C#Cc2cccnc2)cc1` [Example A21, 3-(4-(Pyridin-3-ylethynyl)phenyl)propanoic acid], the figure is 2750 nM.
Same read-out and setting: with `O=C(O)CCc1ccc(C#Cc2ccnc(Cl)c2)cc1` [Example A22, 3-(4-((2-Chloropyridin-4-yl)ethynyl)phenyl)propanoic acid] the figure was 115 nM; with `Cc1cccc(C#Cc2ccc(CCC(=O)O)cc2)n1` [Example A23, 3-(4-((6-Methylpyridin-2-yl)ethynyl)phenyl)propanoic acid], 3800 nM.
As for `O=C(O)COc1ccc(C#Cc2cccc(O)c2)cc1` [Example A24, 2-(4-((3-Hydroxyphenyl)ethynyl)phenoxy)ethanoic acid], the EC50 was 4790 nM.
The same measure, in the same setting: as for `O=C(O)COc1ccc(C#Cc2ccc(O)cc2)cc1` [Example A25, 2-(4-((4-Hydroxyphenyl)ethynyl)phenoxy)ethanoic acid], the figure is 132000 nM.
Same read-out and setting: with `O=C(O)COc1ccc(C#Cc2ccc(CO)cc2)cc1` [Example A26, 2-(4-((4-(Hydroxymethyl)phenyl)ethynyl)phenoxy)ethanoic acid] the figure was 112000 nM; with `O=C(O)CCc1ccc(C#Cc2cc(Cl)nc(Cl)c2)cc1` [Example A33, 3-(4-((2,6-Dichloropyridin-4-yl)ethynyl)phenyl)propanoic acid], 56.2 nM.
Still for that read-out and setting: as for `Cc1ccccc1C#Cc1ccc(C2CC2C(=O)O)cc1` (stereo not drawn) [Example A36, 2-(4-(o-Tolylethynyl)phenyl)cyclopropanecarboxylic acid], the figure is 138 nM; as for `Cc1cccc(C#Cc2ccc(C3CC3C(=O)O)cc2)c1` (stereo not drawn) [Example A37, 2-(4-(m-Tolylethynyl)phenyl)cyclopropanecarboxylic acid], 93.3 nM; as for `Cc1ccc(C#Cc2ccc(C3CC3C(=O)O)cc2)cc1` (stereo not drawn) [Example A38, 2-(4-(p-Tolylethynyl)phenyl)cyclopropanecarboxylic acid], 309 nM.
`O=C(O)CCc1ccc(C#Cc2cccc(OCc3ccccc3)c2)cc1` [Example A55, 3-(4-((3-(Benzyloxy)phenyl)ethynyl)phenyl)propanoic acid]: the EC50 was 525 nM.
Take `C#CCOc1cccc(C#Cc2ccc(CCC(=O)O)cc2)c1` [Example A56, 3-(4-((3-(Prop-2-ynyloxy)phenyl)ethynyl)phenyl)propanoic acid]: the EC50 was 77.6 nM.
For the compound `C=CCOc1cccc(C#Cc2ccc(CCC(=O)O)cc2)c1` [Example A57, 3-(4-((3-(Allyloxy)phenyl)ethynyl)phenyl)propanoic acid], the EC50 was 145 nM.
Same read-out and setting: with `Cc1ccc(S(=O)(=O)OCCc2ccccc2C#Cc2ccc(CCC(=O)O)cc2)cc1` [Example A61, 3-(4-((2-(2-(Tosyloxy)ethyl)phenyl)ethynyl)phenyl)propanoic acid] the figure was 316 nM.

These data come from patent US8586607B2, “Compounds for the treatment of metabolic diseases” (Syddansk Universitet, priority 2008, dated 2013).
